Source: patent US20160073662A1, “PRESERVATIVE AND ADDITIVE FOR FOOD AND FEED” (priority 2014, published 2016)

Assay: Contact of acid solution with human skin
Conditions: solution with a pH of less than 0.5

SMILES: O=S(=O)(O)O [sulfuric acid]
- irritation of hand put into solution: an irritation would occur
